Experimental data reported in the NIST ThermoML archive (doi:10.1016/j.jct.2018.04.014).
Numbers after ± are expanded uncertainties.

Assays:
[1] = xn = mol fraction of the nth substance listed; conditions: 93.4 kPa, Liquid, x2 = 0.059; for viscosity: Concentric cylinders viscometry; for mass density: Vibrating tube method
[2] = Liquid; for viscosity / mass density: 93.4 kPa; for viscosity: Concentric cylinders viscometry; for mass density: Vibrating tube method; for vapor or sublimation pressure: Closed cell (Static) method

## C=CCn1cc[n+](C)c1.[Cl-] [1-allyl-3-methylimidazolium chloride] + O
[1]; 323.15 K
  viscosity: 212 ± 6 mPa·s
  mass density: 1132.7 ± 1.1 kg/m3
[1]; 333.15 K
  viscosity: 115 ± 3 mPa·s
  mass density: 1127.1 ± 1.1 kg/m3
[1]; 343.15 K
  viscosity: 68.7 ± 1.6 mPa·s
  mass density: 1121.5 ± 1 kg/m3
[1]; 353.15 K
  viscosity: 44 ± 1 mPa·s
  mass density: 1116 ± 1 kg/m3
[1]; 363.15 K
  viscosity: 30 ± 0.7 mPa·s
  mass density: 1110.5 ± 1 kg/m3
[1]; 373.15 K
  viscosity: 21.4 ± 0.5 mPa·s
  mass density: 1105.2 ± 1 kg/m3

## C[S+](C)[O-] [dimethyl sulfoxide]
[2]; 293.15 K
  viscosity: 2.26 ± 0.05 mPa·s
  mass density: 1101.2 ± 1.1 kg/m3
[2]; 303.15 K
  viscosity: 1.85 ± 0.04 mPa·s
  mass density: 1091.2 ± 1.1 kg/m3
[2]; 313.15 K
  viscosity: 1.56 ± 0.04 mPa·s
  mass density: 1081.1 ± 1.1 kg/m3
[2]; 323.15 K
  viscosity: 1.33 ± 0.03 mPa·s
  mass density: 1071.1 ± 1 kg/m3
[2]; 333.15 K
  viscosity: 1.16 ± 0.03 mPa·s
  mass density: 1061.2 ± 1 kg/m3
[2]; 343.15 K
  viscosity: 1.02 ± 0.02 mPa·s
  mass density: 1051.3 ± 1 kg/m3
[2]; 353.1 K
  vapor or sublimation pressure: 2 ± 0.2 kPa
[2]; 353.15 K
  viscosity: 0.905 ± 0.021 mPa·s
  mass density: 1041.1 ± 1 kg/m3
[2]; 363.1 K
  vapor or sublimation pressure: 3.2 ± 0.3 kPa
[2]; 363.15 K
  viscosity: 0.815 ± 0.019 mPa·s
  mass density: 1031.3 ± 1 kg/m3
[2]; 373.1 K
  vapor or sublimation pressure: 5 ± 0.5 kPa
[2]; 373.15 K
  viscosity: 0.741 ± 0.018 mPa·s
  mass density: 1021.4 ± 1 kg/m3
[2]; 383.1 K
  vapor or sublimation pressure: 7.6 ± 0.7 kPa
[2]; 393.1 K
  vapor or sublimation pressure: 11.2 ± 1 kPa
[2]; 403.1 K
  vapor or sublimation pressure: 16 ± 1.4 kPa
[2]; 413.1 K
  vapor or sublimation pressure: 22.7 ± 2 kPa
[2]; 423.1 K
  vapor or sublimation pressure: 31.6 ± 2.8 kPa
[2]; 433.1 K
  vapor or sublimation pressure: 43.2 ± 4.5 kPa
